Reference: US20130060020A1, “Compounds useful for treating neurodegenerative disorders” (Satori Pharmaceuticals, Inc., priority 2011, published 2013)
Read-outs that look alike come from different tables or passages of the source.

Tests used:
Assay type in all cases: cell-based
Conditions in all cases: Homo sapiens, 5 hours treatment
Aβ-42 = Aβ-42 MSD 3-plex ELISA, conditioned media of 2B7 cells
Description: (§1) Assays were conducted to determine the ability of a Compound of Formula I to modulate […], and Aβ-38.
(§2) Plates with capture antibodies were blocked for 1-2 hours at room temperature with 150 μL of the manufactures blocking reagent.
(§3) Cultured 2B7 cells in 96 well plate with 250 μL of media per well until confluent;
(§4) Prepared serial dilutions of compounds in DMSO at 100× the final desired concentration;
(§5) Washed wells with 2B7 cells 1× with 250 μL of media;
(§6) Diluted DMSO stocks 1:100 into media: • Added 250 μL of media containing compounds (1% DMSO) to wells with 2B7 cells for 5 hours at 37° C.
(§7) ELISA Sample Prep: • Diluted conditioned media: 1 part media with 1% DMSO and 1 part blocking buffer; • 150 μL of the 250 μL of conditioned media were used.
(§8) Prepared per manufacturer's protocol (see above). • Seven point standard curve samples were prepared that contained Aβ-42, Aβ-40, and Aβ-38. The highest concentration of Aβ-42 and Aβ-38 was 3,000 pg/mL and the highest concentration of Aβ-40 was 10,000 pg/mL. Subsequent serial dilutions were 1:3 and the final composition of each sample was 1 part blocking buffer and 1 part cell medium containing 1% DMSO.
(§9) Overnight Sample Incubation: • Blocked plates are washed 5× with MSD wash buffer with a plate washer; • […] and blocker G reagent in MSD blocking solution was added; • 25 μL of samples (1 part conditioned media containing 1% DMSO and 1 part MSD blocking buffer) were then added; • Plates were incubated overnight at 4 degrees C. or 2 hours at room temperature.
(§10) Final Wash and Readout: • Washed wells 5× with MSD wash buffer; • Added 150 μL 2×MSD read buffer; • Read with MSD imager.
(§11) Aβ peptide levels for each peptide were calculated from the standard curve using the MSD software provided with the MSD 2400 Imager. Percent vehicle values for each compound dosage were then calculated and fit to a 4 parameter curve generating IC50 values.
(§12) Conditioned media from 2B7 cells (Mayo) was collected after 5 hours of treatment and diluted with 1 volume of Meso Scale Discovery (MSD, Gaithersburg Md.) blocking buffer (1% BSA in MSD wash buffer). For total Aβ measurements, standard-bind, multi-array single spot 96 well MSD ELISA plates were coated with unlabeled 4G8 capture antibody (Covance, Princeton, N.J.) overnight at 4° C. and then blocked with 5% BSA in MSD wash buffer for 1 hour at room temperature with orbital shaking Diluted 2B7 conditioned media were added to the blocked in-house total Aβ MSD plates with SULFO-TAG 6E10 antibody (MSD). For Aβ38, 40 and 42 measurements, diluted 2B7 conditioned media were added to blocked human (6E10) Aβ 3-Plex plates (MSD). Total Aβ and Aβ 3-Plex plates were incubated for 2 hours at room temperature with orbital shaking followed by washing and reading according to the manufacturer's instructions (SECTOR® Imager 2400, MSD). Aβ concentrations were converted to percent vehicle values and used to construct dose response curves which were fitted to […] using GraphPad Prism version 5.00 for Windows, GraphPad Software, San Diego Calif. USA.

Aβ-40 = Aβ-40 MSD 3-plex ELISA, conditioned media of 2B7 cells
Description: as §1, §2, §3, §4, §5, §6, §7, §8, §9, §10, §11, §12

Aβ-38 = Aβ-38 MSD 3-plex ELISA, conditioned media of 2B7 cells
Description: as §1, §2, §3, §4, §5, §6, §7, §8, §9, §10, §11, §12

[1] = inflection of dose response curve, read-out: Aβ 42 DR IC50 Inflection
[2] = inflection of dose response curve, read-out: Aβ 40 DR IC50 Inflection
[3] = inflection of dose response curve, read-out: Aβ 38 DR IC50 Inflection

| Structure (SMILES) | IC50 (Aβ-42; [1]) [nM] | IC50 (Aβ-42; read-out: Aβ 42 IC50) [nM] | IC50 (Aβ-40; [2]) [nM] | IC50 (Aβ-40; read-out: Aβ 40 IC50) [nM] | IC50 (Aβ-38; [3]) [nM] | IC50 (Aβ-38; read-out: Aβ 38 IC50) [nM] |
| --- | --- | --- | --- | --- | --- | --- |
| CCO[C@@H]([C@H]1C[C@@H](C)[C@H]2[C@H](O1)[C@H](O)[C@@]1(C)[C@@H]3CC[C@H]4C(C)(C)[C@@H](O[C@H]5CN([C@H]6CCN(CC)C6=O)CCO5)CC[C@@]45C[C@@]35CC[C@]21C)C(C)(C)O [Compound I-1] | 501 to 1000 | 501 to 1000 | > 5000 | > 5000 | 501 to 1000 | 501 to 1000 |
| CCO[C@@H]([C@H]1C[C@@H](C)[C@H]2[C@H](O1)[C@H](O)[C@@]1(C)[C@@H]3CC[C@H]4C(C)(C)[C@@H](O[C@H]5CN(C6CN(CCF)C6)CCO5)CC[C@@]45C[C@@]35CC[C@]21C)C(C)(C)O [Compound I-4] | 100 to 500 | 100 to 500 | > 5000 | 1000 to 5000 |  | 501 to 1000 |
| CCO[C@@H]([C@H]1C[C@@H](C)[C@H]2[C@H](O1)[C@H](O)[C@@]1(C)[C@@H]3CC[C@H]4C(C)(C)[C@@H](O[C@H]5CN(C6CN(CC(F)F)C6)CCO5)CC[C@@]45C[C@@]35CC[C@]21C)C(C)(C)O [Compound I-9] | 100 to 500 | 100 to 500 |  | 1000 to 5000 |  | 501 to 1000 |
| CCO[C@@H]([C@H]1C[C@@H](C)[C@H]2[C@H](O1)[C@H](O)[C@@]1(C)[C@@H]3CC[C@H]4C(C)(C)[C@@H](O[C@H]5CN(C(C)(C)C6CN(C)C6)CCO5)CC[C@@]45C[C@@]35CC[C@]21C)C(C)(C)O [Compound I-12] | 100 to 500 | 100 to 500 |  | 1000 to 5000 |  | 100 to 500 |
| CCO[C@@H]([C@H]1C[C@@H](C)[C@H]2[C@H](O1)[C@H](O)[C@@]1(C)[C@@H]3CC[C@H]4C(C)(C)[C@@H](O[C@H]5CN(C6CN(C(C)(C)C)C6)CCO5)CC[C@@]45C[C@@]35CC[C@]21C)C(C)(C)O [Compound I-14] | < 100 | < 100 |  | 1000 to 5000 |  | 100 to 500 |
| CCO[C@@H]([C@H]1C[C@@H](C)[C@H]2[C@H](O1)[C@H](O)[C@@]1(C)[C@@H]3CC[C@H]4C(C)(C)[C@@H](O[C@H]5CN(C(C)(C)C6CN(C7COC7)C6)CCO5)CC[C@@]45C[C@@]35CC[C@]21C)C(C)(C)O [Compound I-15] | 100 to 500 | 100 to 500 | > 5000 | 1000 to 5000 |  | 501 to 1000 |
| CCO[C@@H]([C@H]1C[C@@H](C)[C@H]2[C@H](O1)[C@H](O)[C@@]1(C)[C@@H]3CC[C@H]4C(C)(C)[C@@H](O[C@H]5CN(C6CN(CC(C)(C)C)C6)CCO5)CC[C@@]45C[C@@]35CC[C@]21C)C(C)(C)O [Compound I-16] | 100 to 500 | 100 to 500 |  | 1000 to 5000 |  | 501 to 1000 |
| CCO[C@@H]([C@H]1C[C@@H](C)[C@H]2[C@H](O1)[C@H](O)[C@@]1(C)[C@@H]3CC[C@H]4C(C)(C)[C@@H](O[C@H]5CN(CC6CN(CC(C)(C)C)C6)CCO5)CC[C@@]45C[C@@]35CC[C@]21C)C(C)(C)O [Compound I-18] | 100 to 500 | 100 to 500 | 1000 to 5000 | 1000 to 5000 |  | 501 to 1000 |
| CCO[C@@H]([C@H]1C[C@@H](C)[C@H]2[C@H](O1)[C@H](O)[C@@]1(C)[C@@H]3CC[C@H]4C(C)(C)[C@@H](O[C@H]5CN(C6CCN(C7CCC7)CC6)CCO5)CC[C@@]45C[C@@]35CC[C@]21C)C(C)(C)O [Compound I-21] | 100 to 500 | 100 to 500 | 1000 to 5000 | 1000 to 5000 | 501 to 1000 | 501 to 1000 |
| CCO[C@@H]([C@H]1C[C@@H](C)[C@H]2[C@H](O1)[C@H](O)[C@@]1(C)[C@@H]3CC[C@H]4C(C)(C)[C@@H](O[C@H]5CN(CC6CN(C7CCC7)C6)CCO5)CC[C@@]45C[C@@]35CC[C@]21C)C(C)(C)O [Compound I-23] | 100 to 500 | 100 to 500 | > 5000 | 1000 to 5000 |  | 100 to 500 |
| CCO[C@@H]([C@H]1C[C@@H](C)[C@H]2[C@H](O1)[C@H](O)[C@@]1(C)[C@@H]3CC[C@H]4C(C)(C)[C@@H](O[C@H]5CN(CC6CN(CC7(C)COC7)C6)CCO5)CC[C@@]45C[C@@]35CC[C@]21C)C(C)(C)O [Compound I-26] | 100 to 500 | 100 to 500 | 1000 to 5000 | 1000 to 5000 | 1000 to 5000 | 501 to 1000 |
| CCO[C@@H]([C@H]1C[C@@H](C)[C@H]2[C@H](O1)[C@H](O)[C@@]1(C)[C@@H]3CC[C@H]4C(C)(C)[C@@H](O[C@H]5CN(C6(C)CN(C7CCC7)C6)CCO5)CC[C@@]45C[C@@]35CC[C@]21C)C(C)(C)O [Compound I-27] | < 100 | 100 to 500 |  | 1000 to 5000 |  | 100 to 500 |
| CCO[C@@H]([C@H]1C[C@@H](C)[C@H]2[C@H](O1)[C@H](O)[C@@]1(C)[C@@H]3CC[C@H]4C(C)(C)[C@@H](O[C@H]5CN(C6CCN(C)CC6)CCO5)CC[C@@]45C[C@@]35CC[C@]21C)C(C)(C)O [Compound I-29] | < 100 | < 100 |  | 1000 to 5000 |  | 100 to 500 |
| CCO[C@@H]([C@H]1C[C@@H](C)[C@H]2[C@H](O1)[C@H](O)[C@@]1(C)[C@@H]3CC[C@H]4C(C)(C)[C@@H](O[C@H]5CN(C6(C)CN(C)C6)CCO5)CC[C@@]45C[C@@]35CC[C@]21C)C(C)(C)O [Compound I-31] | < 100 | < 100 |  | 1000 to 5000 |  | 100 to 500 |
| CCO[C@@H]([C@H]1C[C@@H](C)[C@H]2[C@H](O1)[C@H](O)[C@@]1(C)[C@@H]3CC[C@H]4C(C)(C)[C@@H](O[C@H]5CN(C6CN(CC7(C)COC7)C6)CCO5)CC[C@@]45C[C@@]35CC[C@]21C)C(C)(C)O [Compound I-32] | 100 to 500 | 100 to 500 |  | 1000 to 5000 |  | 100 to 500 |
| CCO[C@@H]([C@H]1C[C@@H](C)[C@H]2[C@H](O1)[C@H](O)[C@@]1(C)[C@@H]3CC[C@H]4C(C)(C)[C@@H](O[C@H]5CN(C6(C)CN(CC(C)(C)C)C6)CCO5)CC[C@@]45C[C@@]35CC[C@]21C)C(C)(C)O [Compound I-33] | < 100 | 100 to 500 |  |  |  | 100 to 500 |
| CCO[C@@H]([C@H]1C[C@@H](C)[C@H]2[C@H](O1)[C@H](O)[C@@]1(C)[C@@H]3CC[C@H]4C(C)(C)[C@@H](O[C@H]5CN(C6(C)CN(CC7(C)COC7)C6)CCO5)CC[C@@]45C[C@@]35CC[C@]21C)C(C)(C)O [Compound I-34] | 100 to 500 | 100 to 500 |  | 1000 to 5000 |  | 501 to 1000 |
| CCO[C@@H]([C@H]1C[C@@H](C)[C@H]2[C@H](O1)[C@H](O)[C@@]1(C)[C@@H]3CC[C@H]4C(C)(C)[C@@H](O[C@H]5CN(C6(C)CN(C7COC7)C6)CCO5)CC[C@@]45C[C@@]35CC[C@]21C)C(C)(C)O [Compound I-36] | 100 to 500 | 100 to 500 |  |  |  | 501 to 1000 |
| CCO[C@@H]([C@H]1C[C@@H](C)[C@H]2[C@H](O1)[C@H](O)[C@@]1(C)[C@@H]3CC[C@H]4C(C)(C)[C@@H](O[C@H]5CN(C6(C)CN(CCOC)C6)CCO5)CC[C@@]45C[C@@]35CC[C@]21C)C(C)(C)O [Compound I-37] | < 100 | 100 to 500 |  | 1000 to 5000 |  | 100 to 500 |
| CCO[C@@H]([C@H]1C[C@@H](C)[C@H]2[C@H](O1)[C@H](O)[C@@]1(C)[C@@H]3CC[C@H]4C(C)(C)[C@@H](O[C@H]5CN(CCN6CC(F)(F)C6)CCO5)CC[C@@]45C[C@@]35CC[C@]21C)C(C)(C)O [Compound I-64] | 100 to 500 | 100 to 500 |  |  |  | 501 to 1000 |
